Common to all, as to assay type: cell-based
Assay [1] concerns the target T1, PAR1 (Homo sapiens, UniProt P25116).
T1 sequence (P25116 22-425): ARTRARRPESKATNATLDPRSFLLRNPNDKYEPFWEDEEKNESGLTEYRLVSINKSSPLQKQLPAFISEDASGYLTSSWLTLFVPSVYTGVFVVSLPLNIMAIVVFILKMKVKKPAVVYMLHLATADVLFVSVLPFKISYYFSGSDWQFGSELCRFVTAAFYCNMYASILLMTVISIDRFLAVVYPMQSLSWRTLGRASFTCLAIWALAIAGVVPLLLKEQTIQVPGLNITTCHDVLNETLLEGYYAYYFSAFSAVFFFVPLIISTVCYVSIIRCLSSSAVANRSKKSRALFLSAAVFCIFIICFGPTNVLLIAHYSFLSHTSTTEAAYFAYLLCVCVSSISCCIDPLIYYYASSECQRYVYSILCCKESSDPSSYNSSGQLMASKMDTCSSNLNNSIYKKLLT
Nature of the assay: ERK1/2 phosphorylation in A549 cells (thrombin or […]), Western blot. Set-up: endogenous in cells; host or cells: A549, HOP62, H1299, H522, H226, HOP92 lung carcinoma lines. The following applies: A549 cells; pepducin 0.1-3 μM. As for the experimental part:
FIG. 9 illustrates that differential inhibition of PAR1-ERK activation by i3- and i1-derived PAR1 pepducins. (A-C): Western blots of lysates from A549 cells untreated, or treated with thrombin, SLIGKV (SEQ ID NO:29), or AYPGKF (SEQ ID NO:5). Indicated samples were pretreated with various concentrations (0.1 to 3 μmol/L) of P1pal-7, P1pal-10S, or P1pal-i1-11 before stimulation and immunoblotted with anti-phospho-ERK. (D-F): Quantification of the Western blots in (A-C) were conducted by densitometry and results are expressed relative to maximum (fold max) phosphorylation of pERK.
(B): A549 cells stimulated with 10 μM […] over 2 h. A549 cells pretreated with 0.1 μM P1pal-7 and stimulated with 10 μM […] (SEQ ID NO:30) for 5 min. Total ERK was used as a loading control.
Last, there has been a great deal of interest in understanding the mechanism of PAR1-mediated activation of MAP kinase cascade and PAR1-dependent cellular growth and differentiation, proliferation and gene transcription. […] The effects of i1 versus i3 PAR1 pepducins on ERK1/2 activation were examined in the A549 lung adenocarcinoma cell line. […] Inhibition experiments with a range of pepducin concentrations (0.1-3 μM) were conducted. […] The […] (SEQ ID NO:30) peptide gave a rapid and transient ERK1/2 phosphorylation signal that peaked at 5-15 min after stimulation. […] To determine the specificity of the PAR1 pepducin inhibitors, their effects on the closely related PAR2 and PAR4 receptors were also tested.
(In general: A western blot detects proteins with antibodies after separation by electrophoresis.)

Assay [2] concerns the target T2, PAR2-homodimers (Homo sapiens, UniProt P55085, Q172R/R173Q/R36A).
T2 construct: expressed in transfected cells; host or cells: HEK
The assay is described as follows: Migration of HEK cells co-expressing PAR2-R36A and PAR2-RQ toward trypsin. The following applies: 30 nM trypsin; 18 h. The method, then:
(A) PAR2 antagonist pepducins P2pal-18S and P2pal-14GQ inhibit calcium flux induced by PAR2 (SLIGRL) (SEQ ID NO:4) but not PAR1 (TFLLRN) (SEQ ID NO:2) agonists. SW620 cells were stably transfected with PAR1 and pretreated for 1 min with various concentrations of P2pal-18S or P2pal-14GQ and then stimulated with 30 μM PAR agonist. […] Cells were stimulated with 1 μM TFLLRN (SEQ ID NO:2), 1 μM SLIGRL (SEQ ID NO:4) or 100 μM AYPGKF (SEQ ID NO:5) and [^3H]-InsP formation measured over 30 min. (C) SW620 cells were treated with the indicated concentrations of P2pal-18S or P2pal-14GQ in the upper well of an 8-μm pore Boyden chamber and allowed to migrate for 18 h towards 10 μM of the PAR2 specific agonist SLIGRL in the lower chamber. The migration to RPMI/0.1% FBS represents random migration. (D) Migration of HEK cells transiently transfected with PAR2 (wild-type, WT), or PAR2-R36A/PAR2-RQ toward chemotactic gradients of 30 nM trypsin in the absence or presence of the indicated concentration of P2pal-18S for 18 h in a transwell apparatus ([…]). Data (n=2-4) are mean±SEM. *, P<0.05 and **, P<0.005.
To provide functional evidence that one PAR2 receptor can interact with an adjacent PAR2 receptor, a signaling dead PAR2-RQ mutant was constructed by transposing residues at Q172 and R173 located in the critical ‘DRY’ TM3 motif (FIG. 1A, the second set of sequence labeled as “QR->RQ”). […]

Assay [3] deals with PAR2 (Homo sapiens, UniProt P55085). Nature of the assay: Calcium flux screen for PAR2 pepducin agonist and antagonist activity in SW620 cells. Set-up: SW620 colon adenocarcinoma cells that endogenously express PAR2; endogenous in cells; host or cells: SW620 (in A7 the SW620 cells were additionally stably transfected with PAR1). The following applies: 3-4 μM and 14-15 μM pepducin. A general note: Calcium assays in cells follow changes in intracellular calcium, usually with a dye or a luminescent sensor.
Sequence of PAR2 (P55085 26-397): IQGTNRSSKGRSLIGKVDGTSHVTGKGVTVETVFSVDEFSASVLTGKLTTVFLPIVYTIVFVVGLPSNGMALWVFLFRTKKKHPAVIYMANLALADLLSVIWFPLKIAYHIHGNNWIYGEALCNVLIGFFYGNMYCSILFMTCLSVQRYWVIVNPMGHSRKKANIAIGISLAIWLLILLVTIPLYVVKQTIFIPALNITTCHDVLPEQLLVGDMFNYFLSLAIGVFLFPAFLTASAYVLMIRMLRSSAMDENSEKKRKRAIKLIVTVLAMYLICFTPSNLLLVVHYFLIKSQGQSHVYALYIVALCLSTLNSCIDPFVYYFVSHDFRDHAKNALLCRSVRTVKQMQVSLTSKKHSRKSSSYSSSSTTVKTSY
Procedure: (A) Agonist and antagonist activity of third intracellular (i3) loop PAR2 pepducins (structure shown on top) using calcium flux assays with SW620 colon adenocarcinoma cells that endogenously express PAR2. Each column of three calcium flux traces corresponds to the i3 pepducin sequence shown above. The top row is the agonist activity of 3-4 μM pepducin and the middle row is the agonist activity of 14-15 μM pepducin. […] Final concentration of DMSO vehicle was 0.2%. […] (C) Agonist activity for each pepducin from (A) is reported as initial velocity of calcium flux at 4 μM pepducin (†), or at 14-15 μM pepducin (‡).

Peptide text beside a SMILES is read from it. * marks the point of attachment. Palmitoyl = CCCCCCCCCCCCCCCC(=O)*

T2 sequence (P55085 26-397 R36A): as the sequence (P55085 26-397) above, with R11A counted along it
T2 sequence (P55085 37-397 Q172R/R173Q): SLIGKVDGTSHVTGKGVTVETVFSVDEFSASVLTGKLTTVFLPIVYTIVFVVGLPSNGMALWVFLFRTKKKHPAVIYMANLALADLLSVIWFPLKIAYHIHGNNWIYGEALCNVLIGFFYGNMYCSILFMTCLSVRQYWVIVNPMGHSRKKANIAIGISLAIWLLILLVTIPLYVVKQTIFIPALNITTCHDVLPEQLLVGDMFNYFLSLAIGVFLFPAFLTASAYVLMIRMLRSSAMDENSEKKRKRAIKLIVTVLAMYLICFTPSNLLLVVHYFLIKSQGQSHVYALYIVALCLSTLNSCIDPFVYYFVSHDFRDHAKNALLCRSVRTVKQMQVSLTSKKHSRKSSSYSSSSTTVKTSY

Turning to `CCCCCCCCCCCCCCCC(=O)N[C@H](C(=O)N[C@@H](CC(C)C)C(=O)N[C@@H](CCCCN)C(=O)N[C@@H](CCSC)C(=O)N[C@@H](CCCCN)C(=O)N[C@H](C(=O)N[C@@H](CCCCN)C(=O)N[C@@H](CCCCN)C(=O)N1CCC[C@H]1C(=O)N[C@@H](C)C(=O)N[C@H](C(N)=O)C(C)C)C(C)C)[C@@H](C)CC` [P1pal-i1-11] (Palmitoyl-ILKMKVKKPAV-NH2), in assay [1], the “Effect on thrombin-induced ERK1/2 phosphorylation” value is “no effect”.

For `CCCCCCCCCCCCCCCC(=O)N[C@@H](CCCNC(=N)N)C(=O)N[C@@H](CO)C(=O)N[C@@H](CO)C(=O)N[C@@H](C)C(=O)N[C@@H](CCSC)C(=O)N[C@@H](CC(=O)O)C(=O)N[C@@H](CCC(=O)O)C(=O)N[C@@H](CC(N)=O)C(=O)N[C@@H](CO)C(=O)N[C@@H](CCC(=O)O)C(=O)N[C@@H](CCCCN)C(=O)N[C@@H](CCCCN)C(=O)N[C@@H](CCCNC(=N)N)C(=O)N[C@@H](CCCCN)C(=O)N[C@@H](CO)C(=O)N[C@@H](C)C(=O)N[C@H](C(=O)N[C@@H](CCCCN)C(N)=O)[C@@H](C)CC` [P2pal-18S], in assay [2], the “Suppression of chemotactic migration (transactivation of PAR2-homodimers)” value is “complete suppression”. Further, in assay [3], the “Agonist activity (calcium flux)” value is recorded as “no detectable or otherwise significant agonist activity”.

These data come from patent US10913781B2, “Pepducin design and use” (Tufts Medical Center, Inc., priority 2011, dated 2021).
